Measurements taken from patent US20190133997A1, “ARTEMISININ ANALOG, AND USE, METHOD, AND COMPOSITION FOR PROMOTING LIPID CATABOLISM AND IMPROVING SUGAR METABOLISM” (FUDAN UNIVERSITY, priority 2016, published 2019).
Where two headings read alike, the source gives them in different places.

Tests used:
[1] = tested on: obese mice induced by high-fat diet; test: Intraperitoneal artemether, fatty liver in obese mice induced by high-fat diet (HE staining); type: in vivo, Male C57BL/6J mice; settings: intraperitoneal 20 mg/kg twice a week, eight weeks
Experimental: The mice were breeded in the SPF animal laboratory of the Laboratory Animal Center of Fudan University at a room temperature of 21° C.-23° C. with a 12-hour light/dark cycle. […] When the mice were grown to 8-week old, they were randomly divided into a control group and an administration group, with 8 mice in each group. While the mice were fed with a high-fat diet, artemether was injected intraperitoneally. Artemether for intraperitoneal injection was stored at 4° C. in coconut oil at a storage concentration of 6 mg/ml (20 mMol/L), and protected from light. Mice in administration group were injected with artemether at a dose of 20 mg/kg weight. Administration was twice a week for eight weeks. The mice were sacrificed by cervical dislocation, and liver tissues of mice were removed and fixed. The histological analysis for liver was commissioned by Shanghai Saige Biotech Co., Ltd., and the histological analysis process included tissue fixation, paraffin embedding, sectioning and HE staining.

[2] = Intraperitoneal artemether, food intake of mice on normal and high-fat diet; type: in vivo, Male C57BL/6J mice; settings: intraperitoneal 20 mg/kg
Experimental: The mice were breeded in the SPF animal laboratory of the Laboratory Animal Center of Fudan University at a room temperature of 21° C.-23° C. with a 12-hour light/dark cycle. When the mice were grown to 8-week old, they were randomly divided into four groups, a high-fat control group, a high-fat administration group, a normal administration group, and a normal control group, with 8 mice in each group. Administration groups (high-fat and normal diet) were injected intraperitoneally with artemether. Artemether for intraperitoneal injection was stored at 4° C. in coconut oil at a storage concentration of 6 mg/ml (20 mMol/L), and protected from light. Mice in administration group were injected with artemether at a dose of 20 mg/kg weight, and mice in control group were injected with 100 μl coconut oil. The diet was weighed weekly and the diet consumption of mice in each group was recorded.

high fat-fed mice = test: Subcutaneous artemether, adipose tissue in high fat-fed mice; type: in vivo, Male C57BL/6J mice; settings: high-fat diet, subcutaneous injection, eight weeks
Experimental: The mice were breeded in the SPF animal laboratory of the Laboratory Animal Center of Fudan University at a room temperature of 21° C.-23° C. with a 12-hour light/dark cycle. […] When the mice were grown to 8-week old, they were randomly divided into a control group and an administration group, with 8 mice in each group. While the mice were fed with a high-fat diet, artemether was injected subcutaneously. Artemether was diluted in PBS at a concentration of […], and injected into bilateral inguinal region, with 200 μl being injected into each side. Mice in control group were injected with the same volume of PBS. Administration was continued for eight weeks. The mice were sacrificed by cervical dislocation and were dissected, and inguinal fat (Inguinal, subcutaneous fat), epididymal fat (Gonadal, visceral fat) and brown fat in the interscapular region (BAT, classic brown fat) were removed, weighed and fixed. The histological analysis of adipose tissue was commissioned by Shanghai Saige Biotech Co., Ltd. The histological analysis process included the steps of fixing, paraffin embedding, sectioning and HE staining.

[3] = rodent models, high concentrations; no clear evidence of dose and timing; cited from earlier work
[4] = tested on: obese mice induced by high-fat diet; test: Subcutaneous artemether, glucose and insulin tolerance tests in high-fat diet obese mice; type: in vivo, Male C57BL/6J mice; settings: subcutaneous injection, eight weeks
Experimental: The mice were breeded in the SPF animal laboratory of the Laboratory Animal Center of Fudan University at a room temperature of 21° C.-23° C. with a 12-hour light/dark cycle. […] When the mice were grown to 8-week old, they were randomly divided into a control group and an administration group, with 8 mice in each group. While the mice were fed with a high-fat diet, artemether was injected subcutaneously. Artemether was diluted in PBS at a concentration of […], and injected into bilateral inguinal region, with 200 μl being injected into each side. Mice in control group were injected with the same volume of PBS. Administration was continued for eight weeks.
The mice were fasted for 12-16 hours and injected intraperitoneally with glucose injection at a dose of […]. At 0 min, 30 min, 60 min, 90 min, and 120 min after injection, blood was collected from the tail vein, and blood glucose was measured with OneTouch ExtraEasy glucometer and OneTouch ExtraEasy blood glucose test strips and the results were recorded.
Insulin was injected intraperitoneally at a dose of 0.75 U/kg weight. At 0 min, 15 min, 30 min, 45 min and 60 min after injection, blood was collected from the tail vein, and blood glucose was measured.

For `CO[C@H]1O[C@@H]2O[C@@]3(C)CC[C@H]4[C@H](C)CC[C@@H]([C@H]1C)[C@@]24OO3` [artemether], the “morphology of the liver cells” value [1] was “almost normal”, the “lipid in the liver (fatty liver)” value ([1]; control: obvious lipid accumulation) was “only a small amount of lipid” and the “diet consumption of mice” value ([2]; high-fat groups) was “substantially the same as that of mice in control group”. For the same molecule, the anorexia nervosa ([2]; normal diet and high fat diet) was “did not cause anorexia nervosa”, the “diet consumption of mice” value ([2]; normal groups) was “not different from that of mice in control group” and the “adipocyte size (sectioning and HE staining)” value (high fat-fed mice) was “significantly smaller than that of mice in control group”. The “volume of adipose tissue (inguinal fat, epididymal fat and brown fat)” value (high fat-fed mice) was “significantly smaller than that of mice in control group”, the “weight of adipose tissue (inguinal fat, epididymal fat and brown fat)” value (high fat-fed mice) was “significantly smaller than that of mice in control group” and the anorexia nervosa [3] was “would cause anorexia nervosa”. The glucose tolerance [4] was “significantly better than that of mice in control group” and the insulin tolerance [4] was “significantly better than that of mice in control group”.
